Test results reported in US11945822B2, “Pyrazolo-triazine and/or pyrazolo-pxrimidine derivatives as selective inhibitor of cyclin dependent kinase” (QURIENT CO., LTD., priority 2018, dated 2024).

Assays:
[1] = test system: MV4-11; test: Cellular MV4-11 viability assay (CellTiter-Glo, 72 hours); type: cell-based; settings: Homo sapiens
Procedure, shortened: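 Cells plated in 96 wells and exposed to compound 72 h at 37 °C, 5% CO2, final DMSO below 0.1%, DMSO control. Viability by CellTiter-Glo luminescence, duplicate.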

[2] = target: T1, CDK1/CycA2 (Homo sapiens, UniProt P06493); test: In vitro IC50 profile for CDKs family kinase (33PanQinase radiometric assay); type: biochemical; settings: CDK7 selectivity profile in CDKs family
T1 construct: purchased ProQinase GmbH
Experimental: (§1) In Vitro IC50 Profile for CDK7 Inhibitor Among 28 CDKs Family Kinases.
(§2) The IC50 profile of compounds were determined using 28 CDKs family protein kinases through ProQinase GmbH (Freiburg, Germany). All the protocol and materials had been provided by ProQinase GmbH. Briefly, in the process, 90 μl H2O were added to each well of a compound dilution plate. To minimize potential precipitation, the H2O was added to the plate only a few minutes before the transfer of the compound solutions into the assay plates. The plate was shaken thoroughly, resulting in a “compound dilution plate/10% DMSO”. The compound dilution plate(s) were discarded at the end of the working day. For the assays (see below), 5 μl solution from each well of the compound dilution plate were transferred into the assay plates. The final volume of the assay was 50 μl. All compounds were tested at 10 final assay concentrations in the range from 1×10^−05 M to 3×10^−10 M. The final DMSO concentration in the reaction cocktails was 1% in all cases. All protein kinases provided by ProQinase were expressed in Sf9 insect cells or in E. coli as recombinant GST-fusion proteins or His-tagged proteins, either as full-length or enzymatically active fragments. All kinases were produced from human cDNAs and purified by either GSH affinity chromatography or immobilized metal affinity chromatography. The purity of the protein kinases was examined by SDS-PAGE/Coomassie staining, the identity was checked by mass spectroscopy. Kinases from external vendors, Carna Biosciences Inc.; Invitrogen Corp.; and Millipore Corp., were expressed, purified and quality-controlled by virtue of the vendors readings. A radiometric protein kinase assay (^33PanQinase® Activity Assay) was used for measuring the kinase activity of the 28 protein kinases. All kinase assays were performed in 96-well FlashPlates™ from PerkinElmer (Boston, MA, USA) in a 50 μl reaction volume. The reaction cocktails were incubated at 30° C. for 60 minutes. The reaction was stopped with 50 μl of 2% (v/v) H3PO4, plates were aspirated and washed two times with 200 μl 0.9% (w/v) NaCl. Incorporation of ^33Pi was determined with a microplate scintillation counter (Microbeta, Wallac). All assays were performed with a BeckmanCoulter/SAGIAN™ Core System. As part of the data evaluation the low control value from a particular plate was subtracted from the high control value as well as from all 80 “compound values” of the corresponding plate. The residual activity (in %) for each well of a particular plate was calculated by using the following formula: Res. Activity (%)=100×[(cpm of compound−low control)/(high control−low control)]. Results are represented in table (table 10).

[3] = target: T2, CDK16/CycY (Homo sapiens, UniProt Q00536); test: as above; type: biochemical; settings: CDK7 selectivity profile in CDKs family
T2 construct: either as full-length or enzymatically active fragments; purchased ProQinase GmbH (Freiburg, Germany)
Experimental: as §1, §2

[4] = target: T3, CDK13/CycK (Homo sapiens, UniProt Q14004); test: as above; type: biochemical; settings: CDK7 selectivity profile in CDKs family
T3 construct: either as full-length or enzymatically active fragments; purchased ProQinase GmbH (Freiburg, Germany)
Experimental: as §1, §2

[5] = test system: OVCAR-3; test: Cellular OVCAR-3 viability assay (CellTiter-Glo, 72 hours); type: cell-based; settings: Homo sapiens
Source text: Human T-cell acute lymphoblastic leukemia cell line, MOLT-4 (ATCC, Cat #CRL-1582), Human multiple myeloma cell line, RPMI-8226 (Invitrogen, Cat #22400-089) and MM.1S (ATCC, Cat #CRL-2974), NSCLC (Non-small cell lung cancer) cell line H460 (ATCC, Cat #HTB-177), Human colon colorectal carcinoma cell line HCT116 (ATCC, Cat #CCL-247), Human acute monocytic leukemia cell line MV4-11 (ATCC, Cat #CRL-9591), OVCAR-3 (ATCC, Cat #HTB-161) and A2780 (ECACC, Cat #93112519) were obtained from ATCC. Cells were grown in RPMI-1640 media (Invitrogen, Cat #22400-089) supplemented with 10% FBS (Invitrogen, Cat #10099141) and 1% penicillin/streptomycin (Invitrogen, Cat #15070063) and cultured at 37° C., 5% CO2 in a humidified chamber. All cell lines were routinely tested for mycoplasma.
The effect of the CDK7 inhibitor to inhibit the growth of target cancer cells was evaluated through the 72 hours time period of viability assay. Briefly, the candidate cell line ware plated in 96 well plate at the following density of cells respectively. 1×10^4 cells/well for MOLT-4, RPMI-8226, MV4-11 and MM.1S, 5×10^3 for H460, HCT116 and OVCAR-3 and IX 10^3 for A2780. After 24 hours, the cells were treated with various concentrations of the compound (ranging from 0.0015 uM to 10 uM). DMSO solvent without compound served as a control and final DMSO concentration less than 0.1%. After 72 hours of incubation at 37° C., 5% CO2 incubator, cells were analyzed for the viability using the CellTiter-Glo Luminescent Cell Viability Assay (Promega, Cat #G7570). All viability assays were performed in duplicate and Luminescence was read using an Envision (Perkin Elmer, USA). Data was analyzed using XLfit software.

T3 sequence (Q14004 whole entry, the tested form may be a part): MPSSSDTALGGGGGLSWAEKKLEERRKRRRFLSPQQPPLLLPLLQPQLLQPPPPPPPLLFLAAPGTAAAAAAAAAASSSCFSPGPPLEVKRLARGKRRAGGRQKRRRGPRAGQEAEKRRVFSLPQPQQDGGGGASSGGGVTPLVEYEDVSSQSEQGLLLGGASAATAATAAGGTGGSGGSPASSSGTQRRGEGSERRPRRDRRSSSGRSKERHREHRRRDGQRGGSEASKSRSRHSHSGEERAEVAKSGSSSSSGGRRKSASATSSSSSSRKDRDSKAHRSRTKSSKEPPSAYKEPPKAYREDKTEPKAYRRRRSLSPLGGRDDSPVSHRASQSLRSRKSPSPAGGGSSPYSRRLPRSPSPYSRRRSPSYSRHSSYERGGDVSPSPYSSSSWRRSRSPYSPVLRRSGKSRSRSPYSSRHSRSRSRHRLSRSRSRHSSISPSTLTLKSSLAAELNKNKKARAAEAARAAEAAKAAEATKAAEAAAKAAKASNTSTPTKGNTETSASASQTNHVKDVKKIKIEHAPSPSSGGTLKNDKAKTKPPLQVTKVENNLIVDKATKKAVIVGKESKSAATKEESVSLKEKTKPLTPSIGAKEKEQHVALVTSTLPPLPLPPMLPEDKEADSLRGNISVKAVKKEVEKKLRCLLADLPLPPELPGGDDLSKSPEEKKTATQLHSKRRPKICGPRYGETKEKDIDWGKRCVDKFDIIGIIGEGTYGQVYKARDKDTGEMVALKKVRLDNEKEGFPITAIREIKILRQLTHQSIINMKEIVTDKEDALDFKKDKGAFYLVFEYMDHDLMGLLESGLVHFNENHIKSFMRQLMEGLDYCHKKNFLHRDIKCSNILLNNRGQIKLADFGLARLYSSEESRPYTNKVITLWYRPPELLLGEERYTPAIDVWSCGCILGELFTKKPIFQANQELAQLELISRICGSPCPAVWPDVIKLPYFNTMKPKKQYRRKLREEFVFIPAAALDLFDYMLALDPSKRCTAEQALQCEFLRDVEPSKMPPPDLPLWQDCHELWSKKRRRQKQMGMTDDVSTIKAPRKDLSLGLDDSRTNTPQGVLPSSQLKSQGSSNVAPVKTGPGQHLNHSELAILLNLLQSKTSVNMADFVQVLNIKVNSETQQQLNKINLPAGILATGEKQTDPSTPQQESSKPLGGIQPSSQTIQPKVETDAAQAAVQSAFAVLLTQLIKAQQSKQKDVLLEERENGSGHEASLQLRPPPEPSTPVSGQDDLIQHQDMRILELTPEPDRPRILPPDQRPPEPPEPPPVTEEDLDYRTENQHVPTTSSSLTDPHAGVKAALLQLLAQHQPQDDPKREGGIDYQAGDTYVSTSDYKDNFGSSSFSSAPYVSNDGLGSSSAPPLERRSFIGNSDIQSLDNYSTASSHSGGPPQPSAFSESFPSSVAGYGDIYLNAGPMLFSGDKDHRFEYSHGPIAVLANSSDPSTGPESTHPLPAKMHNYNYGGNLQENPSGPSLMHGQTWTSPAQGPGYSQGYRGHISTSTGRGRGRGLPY
T3 sequence (O75909 whole entry partner, the tested form may be a part): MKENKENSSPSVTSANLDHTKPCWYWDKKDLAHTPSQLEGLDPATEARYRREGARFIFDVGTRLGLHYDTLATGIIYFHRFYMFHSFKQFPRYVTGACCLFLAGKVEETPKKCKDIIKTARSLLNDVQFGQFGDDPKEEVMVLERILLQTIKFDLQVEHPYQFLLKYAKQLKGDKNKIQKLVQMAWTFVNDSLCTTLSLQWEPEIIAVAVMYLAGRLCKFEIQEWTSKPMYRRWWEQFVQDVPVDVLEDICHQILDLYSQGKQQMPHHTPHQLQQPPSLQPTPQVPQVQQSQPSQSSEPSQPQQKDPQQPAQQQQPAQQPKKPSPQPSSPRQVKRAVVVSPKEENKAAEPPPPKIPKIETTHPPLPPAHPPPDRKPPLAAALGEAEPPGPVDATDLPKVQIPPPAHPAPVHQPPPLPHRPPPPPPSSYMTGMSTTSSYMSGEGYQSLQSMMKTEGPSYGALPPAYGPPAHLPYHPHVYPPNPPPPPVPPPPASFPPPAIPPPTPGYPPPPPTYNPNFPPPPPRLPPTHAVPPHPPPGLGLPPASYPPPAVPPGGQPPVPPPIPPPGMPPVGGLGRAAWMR
T1 sequence (P06493 whole entry): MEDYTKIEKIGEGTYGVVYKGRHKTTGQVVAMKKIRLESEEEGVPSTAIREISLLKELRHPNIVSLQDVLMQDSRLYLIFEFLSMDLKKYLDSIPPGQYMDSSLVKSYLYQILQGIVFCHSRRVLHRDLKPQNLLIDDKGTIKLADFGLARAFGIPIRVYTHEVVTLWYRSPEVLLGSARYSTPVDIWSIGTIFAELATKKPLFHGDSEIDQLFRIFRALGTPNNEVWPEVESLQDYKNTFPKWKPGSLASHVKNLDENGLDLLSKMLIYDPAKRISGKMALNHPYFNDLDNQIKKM
T1 sequence (P20248 whole entry partner): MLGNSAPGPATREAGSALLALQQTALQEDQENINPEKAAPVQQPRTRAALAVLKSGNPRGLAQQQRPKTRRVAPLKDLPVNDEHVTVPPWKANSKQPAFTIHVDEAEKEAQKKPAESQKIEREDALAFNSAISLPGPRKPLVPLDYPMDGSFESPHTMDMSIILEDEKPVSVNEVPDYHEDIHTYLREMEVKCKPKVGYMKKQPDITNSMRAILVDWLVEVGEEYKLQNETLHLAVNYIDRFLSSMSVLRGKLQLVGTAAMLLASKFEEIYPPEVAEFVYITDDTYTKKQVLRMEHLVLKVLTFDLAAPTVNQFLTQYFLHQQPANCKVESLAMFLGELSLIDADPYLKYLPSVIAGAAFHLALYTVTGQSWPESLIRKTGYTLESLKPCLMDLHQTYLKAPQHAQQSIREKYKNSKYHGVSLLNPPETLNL
T2 sequence (Q00536 whole entry, the tested form may be a part): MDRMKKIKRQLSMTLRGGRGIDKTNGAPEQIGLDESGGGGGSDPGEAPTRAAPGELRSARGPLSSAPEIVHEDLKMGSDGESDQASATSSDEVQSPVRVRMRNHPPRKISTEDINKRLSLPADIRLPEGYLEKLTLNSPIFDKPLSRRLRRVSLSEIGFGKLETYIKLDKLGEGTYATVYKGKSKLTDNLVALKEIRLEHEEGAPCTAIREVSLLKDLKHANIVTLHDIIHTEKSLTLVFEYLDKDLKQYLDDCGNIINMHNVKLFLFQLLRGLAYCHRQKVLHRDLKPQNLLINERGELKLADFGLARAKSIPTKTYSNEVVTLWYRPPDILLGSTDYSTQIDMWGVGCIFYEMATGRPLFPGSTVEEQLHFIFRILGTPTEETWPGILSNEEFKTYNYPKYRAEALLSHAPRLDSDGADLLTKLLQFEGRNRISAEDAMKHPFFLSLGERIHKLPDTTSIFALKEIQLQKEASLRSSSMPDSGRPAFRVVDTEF
T2 sequence (Q8ND76 whole entry partner, the tested form may be a part): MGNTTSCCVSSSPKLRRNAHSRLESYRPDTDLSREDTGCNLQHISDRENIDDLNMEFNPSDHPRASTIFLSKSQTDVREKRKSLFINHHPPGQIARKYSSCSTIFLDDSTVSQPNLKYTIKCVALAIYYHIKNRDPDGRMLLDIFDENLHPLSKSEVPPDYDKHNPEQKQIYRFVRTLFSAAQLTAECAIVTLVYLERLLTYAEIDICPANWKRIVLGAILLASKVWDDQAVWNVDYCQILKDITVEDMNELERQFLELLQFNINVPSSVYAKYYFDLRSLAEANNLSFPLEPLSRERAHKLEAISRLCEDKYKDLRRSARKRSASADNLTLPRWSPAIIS

With CC(C)c1cnn2c(NCc3c(Cl)cccc3-n3ccc(C(C)(C)O)n3)nc(N3CCC(N)CC3)nc12 [Compound 210] the IC50 [1] was less than 1 µM, the IC50 [2] was greater than 10 µM and the IC50 [3] was 3.96 µM. For the same compound, the IC50 [4] was greater than 10 µM and the IC50 [5] was no more than 1 µM.
